Measurements reported in PubChem BioAssay AID1963834 (Molecular Pharmacology Branch, DTP, NCI, 2024).

Tested on: 873145-292-R-J1-PDC complex spheroid viability
Assay: Anticancer human tumor 873145-292-R-J1-PDC patient-derived renal clear cell carcinoma cell line growth inhibition [POLQ]
Conditions: for IC50: curve of first compound; for viability, T/C: stronger effect = lower value
In short: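 PDC + HUVEC + MSC complex spheroids; POLQ inhibitors ± partner drugs; top conc. at/near clinical Cmax, else 10 microM (SN-38 1 microM), half-log dilutions; 37 degrees C, 5% CO2.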
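Note: spheroids exposed to compounds for 7 days before viability readout.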
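Throughout, for viability, T/C: luminescence signal used as surrogate for viable cell content; 100% = DMSO vehicle control viability.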

## CCCS(=O)(=O)Nc1ccc(F)c(C(=O)c2c[nH]c3ncc(-c4ccc(Cl)cc4)cc23)c1F + Nc1ccc(C#CCN(C(=O)Cc2ncc(C(F)(F)F)cc2C(F)(F)F)c2ccc(F)cc2)nn1
Second compound 0.0316 µM
  IC50: > 10 µM
Second compound 0.1 µM
  IC50: > 10 µM
Second compound 0.316 µM
  IC50: > 10 µM
Second compound 1 µM
  IC50: > 10 µM
Second compound 3.16 µM
  IC50: > 10 µM
Second compound 10 µM
  IC50: > 10 µM
Second compound 0.0316 µM, first compound 0.0316 µM
  viability, T/C: 106%
Second compound 0.0316 µM, first compound 0.1 µM
  viability, T/C: 106%
Second compound 0.0316 µM, first compound 0.316 µM
  viability, T/C: 115%
Second compound 0.0316 µM, first compound 1 µM
  viability, T/C: 97%
Second compound 0.0316 µM, first compound 3.16 µM
  viability, T/C: 103%
Second compound 0.0316 µM, first compound 10 µM
  viability, T/C: 71.2%
Second compound 0.1 µM, first compound 0.0316 µM
  viability, T/C: 103%
Second compound 0.1 µM, first compound 0.1 µM
  viability, T/C: 110%
Second compound 0.1 µM, first compound 0.316 µM
  viability, T/C: 91.9%
Second compound 0.1 µM, first compound 1 µM
  viability, T/C: 98%
Second compound 0.1 µM, first compound 3.16 µM
  viability, T/C: 105%
Second compound 0.1 µM, first compound 10 µM
  viability, T/C: 63.3%
Second compound 0.316 µM, first compound 0.0316 µM
  viability, T/C: 109%
Second compound 0.316 µM, first compound 0.1 µM
  viability, T/C: 107%
Second compound 0.316 µM, first compound 0.316 µM
  viability, T/C: 93.3%
Second compound 0.316 µM, first compound 1 µM
  viability, T/C: 112%
Second compound 0.316 µM, first compound 3.16 µM
  viability, T/C: 99.2%
Second compound 0.316 µM, first compound 10 µM
  viability, T/C: 75.6%
Second compound 1 µM, first compound 0.0316 µM
  viability, T/C: 98.7%
Second compound 1 µM, first compound 0.1 µM
  viability, T/C: 98.9%
Second compound 1 µM, first compound 0.316 µM
  viability, T/C: 102%
Second compound 1 µM, first compound 1 µM
  viability, T/C: 102%
Second compound 1 µM, first compound 3.16 µM
  viability, T/C: 91.1%
Second compound 1 µM, first compound 10 µM
  viability, T/C: 63%
Second compound 3.16 µM, first compound 0.0316 µM
  viability, T/C: 106%
Second compound 3.16 µM, first compound 0.1 µM
  viability, T/C: 113%
Second compound 3.16 µM, first compound 0.316 µM
  viability, T/C: 108%
Second compound 3.16 µM, first compound 1 µM
  viability, T/C: 108%
Second compound 3.16 µM, first compound 3.16 µM
  viability, T/C: 101%
Second compound 3.16 µM, first compound 10 µM
  viability, T/C: 75.4%
Second compound 10 µM, first compound 0.0316 µM
  viability, T/C: 121%
Second compound 10 µM, first compound 0.1 µM
  viability, T/C: 121%
Second compound 10 µM, first compound 0.316 µM
  viability, T/C: 111%
Second compound 10 µM, first compound 1 µM
  viability, T/C: 107%
Second compound 10 µM, first compound 3.16 µM
  viability, T/C: 110%
Second compound 10 µM, first compound 10 µM
  viability, T/C: 78.5%
